Read-outs that look alike come from different tables or passages of the source.
Legend:
[1] = tested on: Mouse embryonic fibroblasts (MEFs) isolated from the Idua-W402X mice; experiment: GAG levels in cultured mouse embryonic fibroblasts from the nmHurler mouse model (Blyscan Sulfated GAG Assay); format: cell-based; details: 24 hours
Experimental: nmMPS I is caused by the lack of the lysosomal enzyme IDUA and results in the accumulation of GAGs in tissues. Therefore, GAG levels can be monitored to assess the efficacy of treatment for this disease. In the nmHurler mouse model of nmMPS I, the Idua-W402X Hurler mouse IDUA gene (TGG→TAG) harbors a W392X mutation in exon 9, corresponding to the W402X mutation found in approximately 30 to 50% of nmMPS I patients. Mouse embryonic fibroblasts (MEFs) isolated from the Idua-W402X mice were treated with Compound 1 at concentrations of 0, 1, 2.5, 5, 10, 20, and 40 μg/mL for 24 hours in 0.2% DMSO. After 24 hours, cells were lysed and the levels of GAGs were quantified.
The effect of Compound 1 on iduronidase activity as a result of readthrough of the premature stop codon present in the Idua gene was determined in an in vitro GAG accumulation assay. This assay utilized primary fibroblasts isolated from 13 day-old +/+ and −/− Idua-W392X mouse embryos. Mouse embryonic fibroblasts (MEFs) were isolated from 13 day-old wild type and homozygous Idua-W392X mouse embryo littermates. The cells were grown in Dulbecco's Modified Eagle Media (DMEM) containing 10% bovine calf serum (BCS)+1% non-essential amino acids+1% penicillin/streptomycin at 37° C. and 5% CO2. The MEFs were isolated and grown on collagen-coated plates until ˜50% confluent. MEFs from Idua-W392X mice were treated with increasing concentrations of Compound 1 dissolved in DMSO to a final concentration of 0.2%. Cells were incubated with Compound 1 for 24 hours. Controls included untreated wild type and untreated Idua-W392X MEFs. After 24 hours, cells were visually inspected for signs of cytotoxicity and cell stress and then lysed using M-Per Protein Reagent (Pierce) containing protease inhibitors (Complete-mini; Roche) per the manufacturer's instructions. The supernatant was used to determine glycosaminoglycan (GAG) levels, as described below.
GAG levels were determined using the Blyscan Sulfated GAG Assay (Biocolor Ltd, UK). Briefly, 50 μl of each lysate was added to 500 μl of the Blyscan Dye Reagent and mixed by vortexing. The mixture was incubated at room temperature for 30 minutes, vortexing every 5 minutes. The dye-bound GAGs were isolated from the solution by centrifuging for 10 minutes at 10,000 g at room temperature. 500 μl of the Blyscan Dye Dissociation Reagent was added to the […] from each sample. […] The entire volume of each sample was then placed into a cuvette and the absorbance was measured at a wavelength of 656 nm. The total amount of sulfated GAGs precipitated from each sample was determined from a standard curve using chondroitin 4-sulfate. The total protein concentration in each lysate was determined using the Bio-Rad protein assay with a standard curve generated using bovine serum albumin.

[2] = Pharmacokinetics of Compound 1 delivered via solid chow (plasma, LC-MS/MS); format: in vivo, C57BL/6J mice; details: for Tmax / Tmin / Cmin / AUC / Cmax: C57BL/6J mice; for AUC / Cmax: C57BL/6J, mouse, plasma, po; for AUC: read-out: AUC9-10
Experimental: The pharmacokinetics of Compound 1 at three doses (0.1%, 0.3% or 1% (w/w)) when delivered via solid chow was determined in satellite wild type C57BL/6J mice. The first day Compound 1 was provided was defined as Day 0. On Day 3 and on Day 13 blood was obtained from mice at specified time points and the plasma concentration of Compound 1 was measured using liquid chromatography-tandem mass spectrometry.
AUC9-10 refers to area under the curve plotting plasma concentration over time (9 am to 10 pm) (hr·μg/mL); Cmax refers to maximal plasma concentration (μg/mL); Cmin refers to minimal plasma concentration (μg/mL); Tmax refers to the time at which the maximal plasma concentration was measured; and Tmin refers to the time at which the minimal plasma concentration was measured.

[3] = 0.1% (w/w) in chow, Day 3, clock time
[4] = 0.1% (w/w) in chow, Day 13, clock time
[5] = 0.3% (w/w) in chow, Day 3, clock time
[6] = 0.3% (w/w) in chow, Day 13, clock time
[7] = 1.0% (w/w) in chow, Day 3, clock time
[8] = 1.0% (w/w) in chow, Day 13, clock time

O=C(O)c1cccc(-c2noc(-c3ccccc3F)n2)c1 [Compound 1, 3-[5-(2-fluoro-phenyl)-[1,2,4]oxadiazol-3-yl]-benzoic acid]
Dose-response relationship for GAG reduction ([1]; Idua-W392X MEFs): U shaped dose-response relationship
Nonsense suppression activity as determined by GAG levels ([1]; Idua-W392X MEFs): concentration dependent nonsense suppression activity
Concentration giving the greatest reduction of GAG levels ([1]; Idua-W402X (W392X) MEFs, 1-40 μg/mL tested): 10 µg/mL
Concentrations with decreased reduction of GAG levels ([1]; Idua-W402X MEFs): above 20 μg/mL
Tmax [2, 3]: 10 pm
Tmin [2, 3]: 1 pm
Cmin ([2]; 0.1% (w/w) in chow, Day 3, plasma): 760 ng/mL
Tmax [2, 4]: 10 pm
Tmin [2, 4]: 1 pm
Cmin ([2]; 0.1% (w/w) in chow, Day 13, plasma): 1000 ng/mL
Tmax [2, 5]: 10 pm
Tmin [2, 5]: 1 pm
Cmin ([2]; 0.3% (w/w) in chow, Day 3, plasma): 3700 ng/mL
Tmax [2, 6]: 10 pm
Tmin [2, 6]: 9 am
Cmin ([2]; 0.3% (w/w) in chow, Day 13, plasma): 4600 ng/mL
Tmax [2, 7]: 4 pm
Tmin [2, 7]: 1 pm
Cmin ([2]; 1.0% (w/w) in chow, Day 3, plasma): 21000 ng/mL
Tmax [2, 8]: 4 pm
Tmin [2, 8]: 9 am
Cmin ([2]; 1.0% (w/w) in chow, Day 13, plasma): 19000 ng/mL
AUC ([2]; 0.1 % (w/w) in chow, 0.1% (w/w) in chow, Day 3, 9 am to 10 pm): 35000 ng·h/mL
Cmax ([2]; 0.1 % (w/w) in chow, 0.1% (w/w) in chow, Day 3, plasma): 5200 ng/mL
AUC ([2]; 0.1 % (w/w) in chow, 0.1% (w/w) in chow, Day 13, 9 am to 10 pm): 28000 ng·h/mL
Cmax ([2]; 0.1 % (w/w) in chow, 0.1% (w/w) in chow, Day 13, plasma): 3600 ng/mL
AUC ([2]; 0.3 % (w/w) in chow, 0.3% (w/w) in chow, Day 3, 9 am to 10 pm): 109000 ng·h/mL
Cmax ([2]; 0.3 % (w/w) in chow, 0.3% (w/w) in chow, Day 3, plasma): 19000 ng/mL
AUC ([2]; 0.3 % (w/w) in chow, 0.3% (w/w) in chow, Day 13, 9 am to 10 pm): 89000 ng·h/mL
Cmax ([2]; 0.3 % (w/w) in chow, 0.3% (w/w) in chow, Day 13, plasma): 13000 ng/mL
AUC ([2]; 1 % (w/w) in chow, 1.0% (w/w) in chow, Day 3, 9 am to 10 pm): 420000 ng·h/mL
Cmax ([2]; 1 % (w/w) in chow, 1.0% (w/w) in chow, Day 3, plasma): 41000 ng/mL
AUC ([2]; 1 % (w/w) in chow, 1.0% (w/w) in chow, Day 13, 9 am to 10 pm): 594000 ng·h/mL
Cmax ([2]; 1 % (w/w) in chow, 1.0% (w/w) in chow, Day 13, plasma): 58000 ng/mL
Plasma concentrations (range over time points) ([2]; mice, 1.0% (w/w) in chow): 19000 to 58000 ng/mL

— patent publication US20170196842A1, “METHODS OF TREATMENT USING A 1,2,4-OXADIAZOLE BENZOIC ACID” (PTC Therapeutics, Inc., priority 2014, published 2017)
